Measured values published in publication PMC12748266, “Testing antimicrobial peptides inhibiting protein synthesis in living E. coli and K. pneumoniae using bio-orthogonal non-canonical amino-acid tagging” (Frontiers in Microbiology, 2025).
≈ marks a conversion by molar mass, not a printed value. Like-named read-outs stand apart in the source and are kept apart here. No end group written: not given here.

Tests used:
Assay type in all cases: cell-based, Escherichia coli
E. coli ATCC 25922 [1] = test: BONCAT protein synthesis inhibition after antimicrobial washout; details: 10 or 30 min at MIC (time not given), then 30 min HPG
Protocol: We used a modified protocol from [Lindivat et al. (2020)]. Briefly, overnight cultures of E. coli ATCC 25922 or K. pneumoniae ATCC 700603, prepared as described above, were diluted to a final concentration of 5×10^6 CFU/mL and allowed to adjust for 30 min at 37 °C. The culture was then incubated at 37 °C in the dark for 10 or 30 min in the presence or absence of each peptide or antibiotic at various concentrations, with a final volume of 1 mL. At this point, only in certain specified experimental assays, the compounds were removed from the supernatant by centrifugation (16,000 × g for 5 min) and bacteria were washed and resuspended in fresh supplemented M9 medium. […] If not analysed immediately, the fixed samples were stored at 4 °C prior to performing the click chemistry reaction. […]
An overnight culture of E. coli ATCC 25922, or of K. pneumoniae ATCC 700603, prepared as described above, was diluted to a final concentration of 5 × 10^6 CFU/mL and allowed to adjust for 30 min at 37 °C under shaking. Membrane permeabilization of bacteria was then assessed by incubating bacteria at 37 °C, in a final volume of 1 mL, with varying concentrations of each peptide or antibiotic used for the BONCAT assay. […] The fluorescence of untreated cells was used to establish the gating for positive PI-stained cells. […]

E. coli ATCC 25922 [2] = test: microbe, parasite or virus in culture; details: for MIC: read-out: MIC
Protocol: […] Each peptide, diluted at a starting concentration of 128 μM in supplemented M9 medium was added to the first column of wells of a 96-well round-bottom microplate (Sarstedt, Milan, Italy). Serially two-fold dilution (1:1) were performed across subsequent wells to a final volume of 50 μL. 50 μL of bacterial suspension (1 × 10^7 CFU/mL) were then added to each well, to a final bacterial concentration in each well to 5 × 10^6 CFU/mL per well. Untreated bacterial culture was used as growth control, while 100 μL of uninoculated supplemented M9 medium was used to verify the sterility of the medium. The plates were sealed with parafilm to minimize evaporation and incubated at 37 °C for 18 h. The minimum inhibitory concentration (MIC) was visually determined as the lowest peptide concentration in a well with no visible bacterial growth. Data are reported as the mode of at least three independent experiments.

E. coli ATCC 25922 [3] = test: BONCAT: HPG incorporation into newly synthesized proteins, flow cytometry; details: compound at MIC; for Fluorescence Intensity (% of Control): 10 min pre-incubation then 30 min HPG, untreated = 100%, mean, n ≥ 3; for Decrease in fluorescence compared to untreated bacteria: 40 min total incubation (10 min + 30 min HPG)
Protocol: We used a modified protocol from [Lindivat et al. (2020)]. Briefly, overnight cultures of E. coli ATCC 25922 or K. pneumoniae ATCC 700603, prepared as described above, were diluted to a final concentration of 5×10^6 CFU/mL and allowed to adjust for 30 min at 37 °C. The culture was then incubated at 37 °C in the dark for 10 or 30 min in the presence or absence of each peptide or antibiotic at various concentrations, with a final volume of 1 mL. At this point, only in certain specified experimental assays, the compounds were removed from the supernatant by centrifugation (16,000 × g for 5 min) and bacteria were washed and resuspended in fresh supplemented M9 medium. Then, 32 μL of a 500 μM homopropargylglycine (HPG) solution were added to each sample, resulting in a final concentration of 16 μM in a finale volume of 1 mL. Also included in each assay were two untreated controls containing only bacteria and bacteria treated with 16 μM HPG alone, respectively. All samples were then incubated at 37 °C in the dark for 30 min. After incubation, samples were washed once with 1X filtered Phosphate Buffered Saline (PBS) (centrifuged at 16,000 x g for 5 min) and resuspended in PBS. After washing, samples were fixed with formaldehyde (Sigma Aldrich, USA) to a final concentration of 3% in 1 mL for 1 h at 25 °C. Subsequently, the samples were centrifuged at 16,000 x g for 5 min and resuspended in 1 mL of PBS. If not analysed immediately, the fixed samples were stored at 4 °C prior to performing the click chemistry reaction. Samples were centrifugated at 16,000 x g for 5 min and bacteria cells were dehydrated by ethanol that was added sequentially to achieve a final concentration of 50% (v/v) (3 min of incubation), 80% (v/v) (3 min of incubation), and 95% (v/v) (3 min of incubation). After dehydration, the samples were centrifugated (16,000 × g, 5 min) and resuspended in PBS. For cell analysis by SDS-PAGE, the following variations were implemented: bacterial cells were diluted in supplemented M9 medium to a final density of ~ 1 × 10^9 CFU/mL, and HPG was added to the samples at a final concentration of 160 μM. Bacteria were incubated with HPG for 0, 15, 30, 60, or 120 min at 37 °C in the dark.
The click reaction was carried out according to [Rostovtsev et al. (2002)]. 15 μL of a pre-mix solution (prepared as described above) were added to each sample containing fixed bacteria that had incorporated HPG (30 μL of pre-mix solution in case of samples prepared for SDS-PAGE analysis), resulting in the following final concentrations in each sample: 0.1 mM copper sulfate, 0.5 mM Tris (3-hydroxypropyltriazolylmethyl)amine (THPTA), and 2.5 μM Alexa Fluor azide 488. Additionally, 50 μL of freshly prepared 100 mM sodium ascorbate and 50 μL of 100 mM aminoguanidine were added (100 μL in case of samples prepared for SDS-PAGE analysis), bringing the final volume to 1 mL. The samples were gently inverted once to mix and incubated for 30 min in the dark at 25 °C. Finally, each sample was washed with PBS once (centrifuged at 16,000 × g for 5 min) and resuspended in 1 mL PBS.
An overnight culture of E. coli ATCC 25922, or of K. pneumoniae ATCC 700603, prepared as described above, was diluted to a final concentration of 5 × 10^6 CFU/mL and allowed to adjust for 30 min at 37 °C under shaking. Membrane permeabilization of bacteria was then assessed by incubating bacteria at 37 °C, in a final volume of 1 mL, with varying concentrations of each peptide or antibiotic used for the BONCAT assay. 5 min before the ending of the selected incubation time (40 min), propidium iodide probe was added to the samples to a final concentration of 10 μg/mL before analysis using a flow cytometer. A positive control consisted of E. coli cells dehydrated with ethanol (as described above), while untreated cells were used as negative control. The fluorescence of untreated cells was used to establish the gating for positive PI-stained cells. […]

[4] = Escherichia coli, ATCC25922, 18 h, supplemented M9 medium, 5 × 10^6 CFU/mL, 18 h, 37 °C, visual, mode of at least three experiments

Compound | Reduction in fluorescence after washout (E. coli ATCC 25922 [1]) | MIC (E. coli ATCC 25922 [2]; Escherichia coli, ATCC25922, 18 h, Mueller Hinton, 2,5x10^5 CFU/mL, 18 h, 37 °C, mode of at least three experiments) | MIC (E. coli ATCC 25922 [2]; Escherichia coli, ATCC25922, 18 h, Mueller Hinton, 5x10^6 CFU/mL, 18 h, 37 °C, mode of at least three experiments) | MIC (E. coli ATCC 25922 [2]; [4]) | Fold increase in MIC on 20-fold increase in cell density (E. coli ATCC 25922 [2]; MHB, 5×10^6 vs 2,5×10^5 CFU/well) | Fluorescence Intensity (% of Control) (E. coli ATCC 25922 [3]) | Decrease in fluorescence compared to untreated bacteria (E. coli ATCC 25922 [3]) | MIC (E. coli ATCC 25922 [2]; Mueller Hinton, 2,5x10^5 CFU/mL, 18 h, 37 °C, mode of at least three experiments) | MIC (E. coli ATCC 25922 [2]; Mueller Hinton, 5x10^6 CFU/mL, 18 h, 37 °C, mode of at least three experiments) | MIC (E. coli ATCC 25922 [2]; supplemented M9 medium, 5 × 10^6 CFU/mL, 18 h, 37 °C, visual, mode of at least three experiments) | MIC (E. coli ATCC 25922 [2]; ATCC 25922, 18 h)
O=C(N[C@H](CO)[C@H](O)c1ccc([N+](=O)[O-])cc1)C(Cl)Cl [CHL, Chloramphenicol] | lost most of its inhibitory effects once removed from the medium | 16 µM (≈ 5.17 µg/mL) | 64 µM (≈ 20.7 µg/mL) | 32 µM (≈ 10.3 µg/mL) | 4-8 fold | 20 % of Control | 80% | – | – | – | –
CO[C@H]1/C=C/O[C@@]2(C)Oc3c(C)c(O)c4c(O)c(c(/C=N/N5CCN(C)CC5)c(O)c4c3C2=O)NC(=O)/C(C)=C\C=C\[C@H](C)[C@H](O)[C@@H](C)[C@@H](O)[C@@H](C)[C@H](OC(C)=O)[C@@H]1C [RIF, Rifampicin] | over 20% | – | – | 2 µM (≈ 1.65 µg/mL) | – | 102 % of Control | did not affect fluorescence intensity | – | – | – | –
RRIRPRPPRLPRPRPR [Bac7(1–16)] | – | – | – | – | – | 18 % of Control | – | 1 µM | 2 µM | 1 µM | –
RRIRPRPPRLPRPRPRPLPFPRPGPRPIPRPLPFP [Bac7(1–35)] | – | – | – | – | – | 14 % of Control | – | – | – | – | 1 µM
